Consider one substance from patent publication US10238714B2, “Method for forming an immune-tolerant site and method for attracting immunosuppressive cells” (KYOTO UNIVERSITY, priority 2015, dated 2019).

Assay [1] concerns regulatory T cells (CD4+Foxp3+ cells). The experiment in a line: Flow cytometry of immune cells at site where bFGF-containing agarose rod was embedded: regulatory T cells. It counts as in vivo, ACI rats. Particulars: for ratio of Foxp3+ cells among CD4+ cells: STZ-diabetic ACI rats. The method, then:
(§1) In a polystyrene tube with an inner diameter of 4 mm, 4.5 agarose solution was poured, and the tube was then left to stand at normal temperature to allow gelation of the agarose solution. The resulting agarose gel rod was removed from the polystyrene tube, and cut into a piece having a length of 25 mm. Subsequently, the agarose gel rod was stored in a freezer at −30° C. overnight to allow freezing of water. By freeze-drying the frozen agarose rod, a porous dry agarose rod was prepared. To the dry agarose rod, 100 μl of 500 μg/ml bFGF solution (FIBLAST Spray 500, Kaken Pharmaceutical Co., Ltd.) was added dropwise to include the bFGF solution in the dry agarose rod.
(§2) On the day when the agarose rod was to be embedded, streptozotocin (STZ) (60 mg/kg body weight) was administered to ACI rats to induce diabetes. To each of the left side and the right side of the back of each ACI rat, the agarose rod having a length of 25 mm and a diameter of 4 mm containing 50 μg of bFGF was embedded. On Day 7 after the embedding, the agarose rod was pulled out. In the vicinity of each place where the agarose rod had been embedded, formation of connective tissue containing a number of blood vessels was found. This tissue was collected, and then minced with scissors, followed by homogenization. The cells were then subjected to purification by Percoll density gradient centrifugation to obtain immune cells, and the obtained immune cells were analyzed using a flow cytometer.
The ratio of Foxp3^+ cells among CD4^+ cells was 25.4% on Day 2, 24.4% on Day 7, 24.4% on Day 10, and 26.4% on Day 14 after the bFGF-containing agarose rod was embedded under the skin.
In general terms: In flow cytometry, cells or beads pass a laser one at a time.

For assay [2], the system named is myeloid-derived suppressor cells (MDSCs). The experiment in a line: Flow cytometry for CD11b/c and granulocytes at site where bFGF-containing agarose rod was embedded. The conditions noted are these: group in which the agarose rod-bFGF was embedded. Format: in vivo, ACI rats. Here is the method: as §1
as §2, with “This tissue was collected, and then minced with scissors, followed by homogenization.” left out, “cytometer. […]” for “cytometer.”

Assay [3] concerns chemokine/cytokine-associated genes. The experiment in a line: Gene expression analysis of tissue in vicinity of embedded bFGF-containing agarose rod. Format: in vivo, rat. Particulars: Day 7 after embedding, versus bFGF-free agarose rod group. The source says:
On Day 7 after embedding of the bFGF-containing agarose rod by the same operation as in Example 4, the tissue in the vicinity of the place where the rod was embedded was collected. The collected tissue was immediately impregnated with RNA later solution (Life Technologies) to inhibit RNA degradation. RNA in the tissue was extracted by the column method. The extracted RNA was amplified by the Express kit method (Affymetrix) and biotin-labeled, followed by hybridization with a Rat Genome 230 2.0 array (Affymetrix). Signals were read by a Hewlett-Packard GeneArray Scanner G2500A. By such a process, gene expression analysis was carried out for three tissue samples obtained from the vicinities of bFGF-containing agarose rods and three tissue samples obtained from the vicinities of control bFGF-free agarose rods. The obtained fluorescence intensities were standardized and normalized, and then subjected to statistical analysis. The standardized and normalized gene expression level was statistically compared between the bFGF-containing agarose rod group and the control bFGF-free agarose rod group. Genes showing increased expression in the bFGF-containing agarose rod group were plotted such that their values along the X-axis became positive. Log 2 conversion was carried out in terms of the X-axis. […]

Turning to “bFGF: basic fibroblast growth factor; bFGF solution (FIBLAST Spray 500, Kaken Pharmaceutical Co., Ltd.)”, the “ratio of Foxp3+ cells among CD4+ cells” value in assay [1] (Day 2 after rod with 50 μg bFGF embedded under the skin) is recorded as 25.4%; in assay [1] (Day 7 after rod with 50 μg bFGF embedded under the skin) it was 24.4%; in assay [1] (Day 10 after rod with 50 μg bFGF embedded under the skin), 24.4%; in assay [1] (Day 14 after rod with 50 μg bFGF embedded under the skin), 26.4%. Besides, the “increase of ratio of regulatory T cells” value in assay [1] (versus about 10% in normal subcutaneous tissues and bFGF-free agarose rod-embedded rats) is on record as 2- to 3 fold. Moreover, the granulocyte marker result in assay [2] is “increase”. For the same substance, the “myeloid-derived suppressor cells (MDSCs)” value in assay [2] was “induced”. In addition, the “expression of genes associated with migration/induction of regulatory T cells among chemokine/cytokine-associated genes” value in assay [3] is recorded as “significant increase”. Besides, the “expression of genes not associated with migration/induction of regulatory T cells among chemokine/cytokine-associated genes” value in assay [3] was “significant decrease”.
